Values of other authors in patent US7771771B2, “Phytosterol compositions” (Raisio Nutrition Ltd., priority 1998, dated 2010).

Key:
serum cholesterol = conditions: rats; compared with sitosterol
[1] = system: serum cholesterol; aortic atheroma; conditions: compared with sitosterol
LDL cholesterol = conditions: children with severe familial hypercholesterolemia; compared with sitosterol
[2] = in words
[3] = system: cholesterol content of mixed micelles; conditions: compared with sitosterol

For CC[C@H](CC[C@@H](C)[C@H]1CC[C@H]2[C@@H]3CC[C@H]4C[C@@H](O)CC[C@]4(C)[C@H]3CC[C@]12C)C(C)C [sitostanol], the hypocholesterolemic activity (serum cholesterol) is listed as “higher hypocholes-terolemic activity than sitosterol”, the “formation of aortic atheroma due to cholesterol feeding” value [1] is listed as “depressed the formation of aortic atheroma due to cholesterol feeding more than did sitosterol” and the “reducing elevated levels of LDL cholesterol” value (LDL cholesterol) is listed as “significantly more effective than sitosterol”. The absorption [2] was “virtually unabsorbed” and the “lowering of the cholesterol content of mixed micelles” value [3] was “more efficiently than sitosterol”.
